Reference: patent publication EP0358085A1, “(1R,5S,6S)-6-[(R)-1-Hydroxyethyl]-1-methyl-2-[(1-alkyl-1,2,4-triazolium-2-yl)alkyl]-thio-carbapenem-3-carboxylic acid derivatives” (LEDERLE (JAPAN) LTD., priority 1988, dated 1990)
≈ marks a conversion by molar mass, not a printed value. Read-outs that look alike come from different tables or passages of the source.

Legend:
[1] = molecular target: T1, Swine Kidney Dehydropeptidase-I (DHP-I) (Sus scrofa, UniProt P22412); test: Hydrolysis activity against DHP-I enzyme substrate by late assay (decrease in absorbency); assay type: biochemical; details: final substrate concentration 100µM; 37°C, 10 minutes; pH 7.1
T1 construct: made soluble by treatment with butanol and purified by the ammonium sulfate fraction method, thereby producing DHP-I enzyme; from tissue; host or cells: swine kidney
Method: The swine kidney (8 kg) was homogenized and the enzyme protein was allowed to precipitate. After a connective lipid was removed with acetone, the resultant material was made soluble by treatment with butanol and purified by the ammonium sulfate fraction method, thereby producing DHP-I enzyme from a 75 % ammonium sulfate fraction. The DHP-I enzyme was then adjusted to give an enzyme concentration of 25 mg/10 ml (phosphate buffer, pH 7.1), and divided into 1 ml portions. The portions were frozen and stored at -40°C or less until use. Glycyl dehydrophenylalanine (Gl-dh-Ph) and imipenem were employed as control compounds, and they were adjusted in situ each to give a concentration of 117µM with the same sodium phosphate buffer solution. […] The solution was then incubated at 37°C for 10 minutes. The initial velocity of hydrolysis of the substrate was measured from a decrease in absorbency at a particular λmax of each of the substrates. A blank test was conducted in substantially the same manner as above by adding 0.2 ml of the sodium phosphate buffer solution (pH 7.1) to 1.2 ml of the above substrate.

[2] = molecular target: T1, Swine Kidney Dehydropeptidase-I (DHP-I); test: Stability of test compounds against DHP-I by HPLC; assay type: in vitro ADME; details: 37°C, 4.5 hours, Substrate Concentration: 100 µM
Method: The swine kidney (8 kg) was homogenized and the enzyme protein was allowed to precipitate. After a connective lipid was removed with acetone, the resultant material was made soluble by treatment with butanol and purified by the ammonium sulfate fraction method, thereby producing DHP-I enzyme from a 75 % ammonium sulfate fraction. The DHP-I enzyme was then adjusted to give an enzyme concentration of 25 mg/10 ml (phosphate buffer, pH 7.1), and divided into 1 ml portions. The portions were frozen and stored at -40°C or less until use. The test compound was adjusted in situ to give a concentration of 117µM with a 50 mM sodium phosphate buffer solution (pH =7.1). Glycyl dehydrophenylalanine (Gl-dh-Ph) and imipenem were employed as control compounds, and they were adjusted in situ each to give a concentration of 117µM with the same sodium phosphate buffer solution. The test compound according to the present invention and the control compounds were treated in substantially the same manner as (1) above. The incubation, however, was conducted at 37°C for 4.5 hours or for 24 hours. The degree of hydrolysis of the compounds each after the test periods was measured by the HPLC method.

Enterobacter cloacae 963 = test: Antibacterial test, agar plate dilution method (MIC); assay type: cell-based; details: MH agar, 37°C, 18 hours
Method: (§1) The antibacterial activities were tested by an agar plate dilution method in accordance with the standard method of The Japanese Chemotherapy Society [Chemotherapy, Vol. 29, 76-79 (1981)].
(§2) A Mueller-Hinton (MH) agar liquid medium of a test microorganism was cultured overnight at 37°C and the resultant culture medium was diluted with a buffered saline gelatin (BSG) solution to contain approximately 10⁶ cells of the test microorganisms per milliliter, and then the diluted solution was inoculated with a micro-planter at the rate of approximately 5 microliters on a MH agar medium containing a test compound. This medium was then incubated at 37°C for 18 hours. The minimum inhibitory concentration (MIC) is determined as a minimum concentration in which no test microorganism could grow. It is noted here that the test organisms used were all standard strains.

[3] = test system: Pseudomonas aeruginosa IFO 3445; test: as above; assay type: cell-based; details: IFO3445, MH agar, 37°C, 18 hours
Method: as §1, §2

[4] = test system: Morganella morganii IFO3848; test: as above; assay type: cell-based; details: MH agar, 37°C, 18 hours
Method: as §1, §2

[5] = test system: Escherichia coli NIHJ JC-2; test: as above; assay type: cell-based; details: NIHJJC2, MH agar, 37°C, 18 hours
Method: as §1, §2

[6] = test system: Bacillus subtilis ATCC6633; test: as above; assay type: cell-based; details: MH agar, 37°C, 18 hours
Method: as §1, §2

[7] = test system: Klebsiella pneumoniae PCI-602; test: as above; assay type: cell-based; details: PCI602, MH agar, 37°C, 18 hours
Method: as §1, §2

[8] = test system: Serratia marcescens IAM1184; test: as above; assay type: cell-based; details: MH agar, 37°C, 18 hours
Method: as §1, §2

[9] = test system: Pseudomonas aeruginosa NCTC 10490; test: as above; assay type: cell-based; details: NCTC10490, MH agar, 37°C, 18 hours
Method: as §1, §2

[10] = test system: Proteus mirabilis IFO3849; test: as above; assay type: cell-based
Method: as §1, §2

Salmonella typhi 901 = test: as above; assay type: cell-based; details: Salmonella enterica, 18 h
Method: as §1, §2

[11] = test system: Escherichia coli K12 C600; test: as above; assay type: cell-based; details: K12C600, MH agar, 37°C, 18 hours
Method: as §1, §2

[12] = test system: Salmonella schottmuelleri 8006; test: as above; assay type: cell-based; details: MH agar, 37°C, 18 hours
Method: as §1, §2

Proteus vulgaris HX-19 = test: as above; assay type: cell-based; details: HX19, MH agar, 37°C, 18 hours
Method: as §1, §2

[13] = test system: Salmonella paratyphi 1015; test: as above; assay type: cell-based; details: Salmonella enterica, MH agar, 37°C, 18 hours
Method: as §1, §2

[14] = test system: Staphylococcus aureus FDA 209PJC-1; test: as above; assay type: cell-based; details: FDA209PJC1, MH agar, 37°C, 18 hours
Method: as §1, §2

[15] = test system: Micrococcus luteus ATCC9341; test: as above; assay type: cell-based; details: MH agar, 37°C, 18 hours
Method: as §1, §2

[16] = test system: Staphylococcus aureus Terajima; test: as above; assay type: cell-based; details: MH agar, 37°C, 18 hours
Method: as §1, §2

Proteus vulgaris OX-19 = test: as above; assay type: cell-based; details: OX19, MH agar, 37°C, 18 hours
Method: as §1, §2

[17] = test system: Salmonella enteritidis G14; test: as above; assay type: cell-based; details: Salmonella enterica
Method: as §1, §2

[18] = test system: Streptococcus pyogenes Cook; test: as above; assay type: cell-based; details: MH agar, 37°C, 18 hours
Method: as §1, §2

[19] = test system: Enterobacter aerogenes ATCC1304; test: as above; assay type: cell-based; details: Klebsiella aerogenes
Method: as §1, §2

[20] = test system: Staphylococcus aureus MS353; test: as above; assay type: cell-based; details: MH agar, 37°C, 18 hours
Method: as §1, §2

[21] = test system: Providencia rettgeri IFO 3850; test: as above; assay type: cell-based; details: IFO3850, MH agar, 37°C, 18 hours
Method: as §1, §2

[22] = test system: Salmonella typhimurium IID971; test: as above; assay type: cell-based; details: Salmonella enterica, MH agar, 37°C, 18 hours
Method: as §1, §2

[23] = test system: male mice of CrjCD(SD) strain; test: Toxicity study in mice, subcutaneous administration, observation for one week; assay type: in vivo; details: 500 mg/kg, subcutaneously
Method: Toxicological studies were carried out using a group of 10 male mice of CrjCD(SD) strain weighing from 20 to 23 grams. A solution containing the carbapenem compound (11) of the present invention obtained by Example 3 was administered subcutaneously to the mice and subjected to observations for one week.

T1 sequence (P22412 17-384): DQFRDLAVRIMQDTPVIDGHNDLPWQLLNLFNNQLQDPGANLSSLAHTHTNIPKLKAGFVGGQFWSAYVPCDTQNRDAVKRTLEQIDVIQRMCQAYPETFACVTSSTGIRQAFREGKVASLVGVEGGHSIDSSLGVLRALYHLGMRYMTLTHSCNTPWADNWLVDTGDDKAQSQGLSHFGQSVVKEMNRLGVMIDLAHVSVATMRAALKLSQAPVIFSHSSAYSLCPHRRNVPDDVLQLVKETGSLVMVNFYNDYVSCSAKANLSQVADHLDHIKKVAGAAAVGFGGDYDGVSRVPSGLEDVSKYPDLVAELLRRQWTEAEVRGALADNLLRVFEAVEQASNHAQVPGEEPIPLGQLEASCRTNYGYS

Compound	initial velocity of hydrolysis [1]	MIC (Enterobacter cloacae 963)	MIC [3]	MIC [4]	MIC [5]	MIC [6]	MIC [7]	MIC [8]	MIC [9]	MIC (Salmonella typhi 901)	MIC [11]	MIC [12]	MIC (Proteus vulgaris HX-19)	MIC [13]	MIC [14]	MIC [15]	MIC [16]	MIC (Proteus vulgaris OX-19)	MIC [18]	MIC [20]	other results
NCC(=O)NC(=Cc1ccccc1)C(=O)O [Gl-dh-Ph, Glycyl dehydrophenylalanine]	17.4 µM/min	–	–	–	–	–	–	–	–	–	–	–	–	–	–	–	–	–	–	–	–
C[C@@H](O)[C@H]1C(=O)N2C(C(=O)O)=C(SCCNC=N)C[C@H]12 [Imipenem, imipenem]	0.56 µM/min	0.78 µg/mL (≈ 2.61 µM)	0.78 µg/mL (≈ 2.61 µM)	3.13 µg/mL (≈ 10.5 µM)	0.1 µg/mL (≈ 0.334 µM)	0.025 µg/mL (≈ 0.0835 µM)	0.2 µg/mL (≈ 0.668 µM)	0.2 µg/mL (≈ 0.668 µM)	0.39 µg/mL (≈ 1.3 µM)	0.05 µg/mL (≈ 0.167 µM)	3.13 µg/mL (≈ 10.5 µM)	0.78 µg/mL (≈ 2.61 µM)	3.13 µg/mL (≈ 10.5 µM)	1.56 µg/mL (≈ 5.21 µM)	0.013 µg/mL (≈ 0.0434 µM)	< 0.006 µg/mL	< 0.006 µg/mL	3.13 µg/mL (≈ 10.5 µM)	< 0.006 µg/mL	0.013 µg/mL (≈ 0.0434 µM)	DEGREES OF HYDROLYSIS BY DHP-I [2]: 77.6 µM; MIC ([10]; Proteus mirabilis, IFO3849, 18 h): 6.25 µg/mL (≈ 20.9 µM); MIC ([17]; ENTERITIDIS, 18 h): 1.56 µg/mL (≈ 5.21 µM); MIC ([19]; ATCC1304, 18 h): 1.56 µg/mL (≈ 5.21 µM); MIC [21]: 0.05 µg/mL (≈ 0.167 µM); MIC [22]: 0.2 µg/mL (≈ 0.668 µM)
C[C@@H](O)[C@H]1C(=O)N2C(C(=O)[O-])=C(SCCn3cnc[n+]3C)[C@H](C)[C@H]12 [Compound (11), (1R,5S,6S)-6-[(R)-1-hydroxyethyl]-1-methyl-2-[2-(1-methyl-1,2,4-triazolium-2-yl)ethyl]thio-carbapenem-3-carboxylate]	–	0.1 µg/mL (≈ 0.284 µM)	1.56 µg/mL (≈ 4.43 µM)	0.39 µg/mL (≈ 1.11 µM)	0.1 µg/mL (≈ 0.284 µM)	0.2 µg/mL (≈ 0.568 µM)	0.2 µg/mL (≈ 0.568 µM)	0.2 µg/mL (≈ 0.568 µM)	0.78 µg/mL (≈ 2.21 µM)	0.05 µg/mL (≈ 0.142 µM)	0.78 µg/mL (≈ 2.21 µM)	0.39 µg/mL (≈ 1.11 µM)	0.78 µg/mL (≈ 2.21 µM)	0.78 µg/mL (≈ 2.21 µM)	0.1 µg/mL (≈ 0.284 µM)	0.1 µg/mL (≈ 0.284 µM)	0.025 µg/mL (≈ 0.0709 µM)	0.78 µg/mL (≈ 2.21 µM)	0.05 µg/mL (≈ 0.142 µM)	0.05 µg/mL (≈ 0.142 µM)	toxicity: survival and abnormal observations [23]: alive without any abnormal observations; MIC ([10]; Proteus mirabilis IFO3849, MH agar, 37°C, 18 hours, read-out: MIC): 1.56 µg/mL (≈ 4.43 µM); MIC ([17]; Salmonella enteritidis G14, MH agar, 37°C, 18 hours, read-out: MIC): 0.78 µg/mL (≈ 2.21 µM); MIC ([19]; Enterobacter aerogenes ATCC1304, MH agar, 37°C, 18 hours, read-out: MIC): 0.78 µg/mL (≈ 2.21 µM); MIC [21]: 0.05 µg/mL (≈ 0.142 µM); MIC [22]: 0.2 µg/mL (≈ 0.568 µM)
